Experimental data as given in patent US20120035187A1 (priority 2009, published 2012).

Assays:
Format in all cases: in vivo, hamster
[1] = test system: hamsters with cerebellar ataxia; assay: Rotarod test in hamsters with cerebellar ataxia
Description: (§1) Since NK-4 was confirmed to have a neurodegenerative inhibitory action in Experiment 1, hamsters with cerebellar ataxia (cerebellar ataxia is called “cerebellar A” and hamsters with cerebellar ataxia are called “hamsters with cerebellar A”, hereinafter) as a suitable model for human neurodegenerative diseases (e.g., spinal cerebellar degeneration) were subjected to examine the influence of NK-4 administration on their behaviors and brain tissues. Twenty-five hamsters with natural mutation (Nna1 inhibition), which are known to lose Purkinje's cells after three-weeks of age and then induce a spontaneous onset of kinetic motor ataxia after seven-weeks of age (see Akita K. et al., “J. Neurogenetics”, Vol. 21, pp. 19-29, 2007), had been fed at Hayashibara Biochemical Laboratories., Inc., Okayama, Japan, were randomly allocated to the test groups 1 to 5, five heads in each group, as shown in Table 2. Prior to the onset of cerebellar A (at three-weeks of age), PBS was started to administer to the hamsters in the test group 1 at a dose of 10 ml/kg/day. Prior to the onset of cerebellar A (at three-weeks of age), NK-4 was started to be administered to the hamsters in the test groups 2 to 4 at a daily dose of 20 μg/kg, 100 μg/kg or 500 μg/kg. “IGF-1, human, a product name of insulin-like growth factor, commercialized by Assaypro LLC, MO, USA. These administered ingredients were intraperitoneally administered daily to hamsters once a day up to 10-weeks of age. The degree of symptom of cerebellar A and the improvement effect on the symptom by NK-4 were evaluated with an index of improvement in motor coordination of hamsters by conducting once a week the later described rotarod test and the slant tolerance test. At the age of 10-weeks, the hamsters were subjected to counting the falling down frequency and extracted their brains, which were then histologically evaluated. In parallel, the concentration of glutamic acid in the bloods and cerebrospinal fluids (CSF) of the hamsters was assayed. As a test group 6, five normal hamsters, with the same age as the hamsters with cerebellar A used in the test groups 1 to 5, were provided and tested similarly as the hamsters with cerebellar A in such a manner of intraperitoneally administering PBS to them at a dose of 10 ml/kg/day once a day up to 10-weeks of age.
As an index for coordinated movement, it was used a duration time of hamster's movement to staying on a rotarod by locomotion in synchronization with the turn of the rotarod; placing a hamster on an apparatus with a rotarod (having a diameter of 60 mm, prepared by Hayashibara Biochemical Laboratories, Inc., Okayama, Japan), turning at a constant rate of six rpm, and measuring the time until the hamster falls down from the rotarod (see Fernandez et al., “Proc. Natl. Acad. Sci. USA”, Vol. 95, pp. 1253-1258, 1998). The test was repeated six times for each hamster, where five-times of tests starting from the initiation of the test were made as a preliminary examination, and the time until each hamster fell down from the rotarod (called “falling time”, hereinafter) was measured, followed by averaging the falling times for each group consisting of five heads. The falling time was measured until 180 seconds. Based on the results, the relationship between the age and the falling time for each hamster with cerebellar A (test group 1) administered with PBS was graphed. […]
Similarly as in Experiment 2, 130 hamsters with cerebellar ataxia, born within the same week and 3-weeks of age, were randomly divided into 13 groups, consisting of 10 hamsters, respectively. […]

[2] = test system: hamsters with cerebellar ataxia; assay: Falling down frequency of hamsters with cerebellar ataxia; settings: for Falling down frequency (frequency/min): cerebellar ataxia hamsters, 10-weeks of age
Description: as §1
Hamsters, 10-weeks of age, were respectively housed in a breeding cage. Their falling down frequencies within one minute were counted under a macroscopic observation and the data from five heads in each group were averaged. For reference, the hamsters with cerebellar A used in this experiment are known to increase their falling down frequencies after nine weeks of age.
(§2) Similarly as in Experiment 2, 130 hamsters with cerebellar ataxia, born within the same week and 3-weeks of age, were randomly divided into 13 groups, consisting of 10 hamsters, respectively. […] The hamsters (10 heads) in the remaining one group were intraperitoneally administered from their age of 3- to 10-weeks with a sterilized 10% maltose solution (pyrogen-free) in an amount of 0.5 ml/hamster (control) once a day for 56 days At the next day after the end of the administration, body weight of each hamster was weighed, followed by performing rotarod test, slope endurance test, and counting of falling down frequency. The types of compounds applied to each group and the results are in Table 25.

[3] = test system: hamsters with cerebellar ataxia; assay: Slant tolerance test in hamsters with cerebellar ataxia; settings: for endurable-slant-slope-angle (degree): cerebellar ataxia hamsters
Description: as §1
Hamsters were placed on a slope-angle-variable-board while keeping their heads upward, followed by determining the angle for allowing the hamsters to keep staying thereupon for five seconds for use as an endurable-slant-slope-angle test (see Rivlin et al., “J. Neurosurg.”, Vol. 47, pp. 577-581, […]). The initial slope angle was set to 25 degrees and increased by 5 degrees step by step. When a tested hamster in a static condition fell down within five seconds, the slope angle was decreased by one degree step by step, followed by judging the angle that allows the hamster to keep static staying for five seconds, measuring the tolerable slant-slope-angle, and averaging the data for five heads in each group.
as §2

[4] = hamster with cerebellar ataxia, agent of Example 1, 0.5 ml/hamster intraperitoneally once a day for 56 days

In the case of `CCN1C=CC(=CC=C(C=Cc2cc[n+](CC)c3ccccc23)c2cc[n+](CC)c3ccccc23)c2ccccc21.[I-].[I-]` [NK-4], the “Delayed days until the onset of cerebellar ataxia in hamster” value (from here on “Delayed days until the onset”) ([1]; 20 μg/kg body weight, 6-Weeks) was 11 days, the “Delayed days until the onset” value ([1]; 20 μg/kg body weight, 7-Weeks) was 17 days and the “Delayed days until the onset” value ([1]; 20 μg/kg body weight, 8-Weeks) was 17 days. The “Delayed days until the onset” value ([1]; 20 μg/kg body weight, 9-Weeks) was 27 days, the “Delayed days until the onset” value ([1]; 20 μg/kg body weight, 10-Weeks) was 32 days and the “Delayed days until the onset” value ([1]; 100 μg/kg body weight, 5-Weeks) was 7 days. For the same compound, the “Delayed days until the onset” value ([1]; 100 μg/kg body weight, 6-Weeks) was 14 days, the “Delayed days until the onset” value ([1]; 100 μg/kg body weight, 7-Weeks) was 21 days and the “Delayed days until the onset” value ([1]; 100 μg/kg body weight, 8-Weeks) was 21 days. For the same compound, the “Delayed days until the onset” value ([1]; 100 μg/kg body weight, 9-Weeks) was 29 days, the “Delayed days until the onset” value ([1]; 100 μg/kg body weight, 10-Weeks) was 36 days and the “Delayed days until the onset” value ([1]; 500 μg/kg body weight, 5-Weeks) was 6 days. The “Delayed days until the onset” value ([1]; 500 μg/kg body weight, 6-Weeks) was 14 days, the “Delayed days until the onset” value ([1]; 500 μg/kg body weight, 7-Weeks) was 21 days and the “Delayed days until the onset” value ([1]; 500 μg/kg body weight, 8-Weeks) was 21 days. The “Delayed days until the onset” value ([1]; 500 μg/kg body weight, 9-Weeks) was 28 days, the “Delayed days until the onset” value ([1]; 500 μg/kg body weight, 10-Weeks) was 35 days and the “time (sec) endured until falling from rotarod apparatus” value (from here on “time (sec) endured until falling”) ([1]; cerebellar ataxia hamsters, 20 μg/kg body weight i.p. once a day from 3-weeks of age, 4-Weeks) was 152 ± 4 s. For the same compound, the “time (sec) endured until falling” value ([1]; cerebellar ataxia hamsters, 20 μg/kg body weight i.p. once a day, 5-Weeks) was 53 ± 5 s, the “time (sec) endured until falling” value ([1]; cerebellar ataxia hamsters, 20 μg/kg body weight i.p. once a day, 6-Weeks) was 89 ± 9 s and the “time (sec) endured until falling” value ([1]; cerebellar ataxia hamsters, 20 μg/kg body weight i.p. once a day, 7-Weeks) was 74 ± 10 s. The “time (sec) endured until falling” value ([1]; cerebellar ataxia hamsters, 20 μg/kg body weight i.p. once a day, 8-Weeks) was 36 ± 2 s, the “time (sec) endured until falling” value ([1]; cerebellar ataxia hamsters, 20 μg/kg body weight i.p. once a day, 9-Weeks) was 48 ± 3 s and the “time (sec) endured until falling” value ([1]; cerebellar ataxia hamsters, 20 μg/kg body weight i.p. once a day, 10-Weeks) was 40 ± 4 s. The “time (sec) endured until falling” value ([1]; cerebellar ataxia hamsters, 100 μg/kg body weight i.p. once a day, 4-Weeks) was 136 ± 5 s, the “time (sec) endured until falling” value ([1]; cerebellar ataxia hamsters, 100 μg/kg body weight i.p. once a day, 5-Weeks) was 145 ± 8 s and the “time (sec) endured until falling” value ([1]; cerebellar ataxia hamsters, 100 μg/kg body weight i.p. once a day, 6-Weeks) was 139 ± 10 s. The “time (sec) endured until falling” value ([1]; cerebellar ataxia hamsters, 100 μg/kg body weight i.p. once a day, 7-Weeks) was 122 ± 7 s, the “time (sec) endured until falling” value ([1]; cerebellar ataxia hamsters, 100 μg/kg body weight i.p. once a day, 8-Weeks) was 79 ± 12 s and the “time (sec) endured until falling” value ([1]; cerebellar ataxia hamsters, 100 μg/kg body weight i.p. once a day, 9-Weeks) was 66 ± 6 s. The “time (sec) endured until falling” value ([1]; cerebellar ataxia hamsters, 100 μg/kg body weight i.p. once a day, 10-Weeks) was 66 ± 6 s, the “time (sec) endured until falling” value ([1]; cerebellar ataxia hamsters, 500 μg/kg body weight i.p. once a day, 4-Weeks) was 156 ± 5 s and the “time (sec) endured until falling” value ([1]; cerebellar ataxia hamsters, 500 μg/kg body weight i.p. once a day, 5-Weeks) was 95 ± 8 s. For the same compound, the “time (sec) endured until falling” value ([1]; cerebellar ataxia hamsters, 500 μg/kg body weight i.p. once a day, 6-Weeks) was 119 ± 4 s, the “time (sec) endured until falling” value ([1]; cerebellar ataxia hamsters, 500 μg/kg body weight i.p. once a day, 7-Weeks) was 145 ± 7 s and the “time (sec) endured until falling” value ([1]; cerebellar ataxia hamsters, 500 μg/kg body weight i.p. once a day, 8-Weeks) was 85 ± 8 s. For the same compound, the “time (sec) endured until falling” value ([1]; cerebellar ataxia hamsters, 500 μg/kg body weight i.p. once a day, 9-Weeks) was 60 ± 7 s, the “time (sec) endured until falling” value ([1]; cerebellar ataxia hamsters, 500 μg/kg body weight i.p. once a day, 10-Weeks) was 52 ± 5 s and the “improving effect on motor coordination (in words)” value ([1]; cerebellar ataxia hamsters, agents of Example 1 compared among pentamethine cyanine dye compounds) was “particularly high improving effect on motor coordination”. For the same compound, the “Delayed days until the onset” value ([1]; from rotarod falling time vs test group 1, 20 μg/kg body weight, 5-Weeks) was 0 days, the “Time of falling from rotarod” value [1, 4] was 88.4 ± 3.2 s and the “Falling down frequency (frequency/min)” value ([2]; 20 μg/kg body weight i.p. once a day) was 4.0 ± 1.0 frequency/min. For the same compound, the “Falling down frequency (frequency/min)” value ([2]; 100 μg/kg body weight i.p. once a day) was 1.6 ± 0.9 frequency/min, the “Falling down frequency (frequency/min)” value ([2]; 500 μg/kg body weight i.p. once a day) was 1.2 ± 0.8 frequency/min and the “Falling down frequency (count/min)” value [2, 4] was 1.1 ± 0.8 count/min. For the same compound, the “endurable-slant-slope-angle (degree)” value ([3]; 20 μg/kg body weight i.p. once a day, 4-Weeks) was 42.6 ± 0.5 degree, the “endurable-slant-slope-angle (degree)” value ([3]; 20 μg/kg body weight i.p. once a day, 5-Weeks) was 47.2 ± 0.4 degree and the “endurable-slant-slope-angle (degree)” value ([3]; 20 μg/kg body weight i.p. once a day, 6-Weeks) was 44.6 ± 0.5 degree. The “endurable-slant-slope-angle (degree)” value ([3]; 20 μg/kg body weight i.p. once a day, 7-Weeks) was 47.0 ± 0.3 degree, the “endurable-slant-slope-angle (degree)” value ([3]; 20 μg/kg body weight i.p. once a day, 8-Weeks) was 42.8 ± 0.5 degree and the “endurable-slant-slope-angle (degree)” value ([3]; 20 μg/kg body weight i.p. once a day, 9-Weeks) was 44.4 ± 0.5 degree. For the same compound, the “endurable-slant-slope-angle (degree)” value ([3]; 20 μg/kg body weight i.p. once a day, 10-Weeks) was 45.8 ± 0.6 degree, the “endurable-slant-slope-angle (degree)” value ([3]; 100 μg/kg body weight i.p. once a day, 4-Weeks) was 41.6 ± 0.4 degree and the “endurable-slant-slope-angle (degree)” value ([3]; 100 μg/kg body weight i.p. once a day, 5-Weeks) was 45.6 ± 0.2 degree. The “endurable-slant-slope-angle (degree)” value ([3]; 100 μg/kg body weight i.p. once a day, 6-Weeks) was 44.4 ± 0.3 degree, the “endurable-slant-slope-angle (degree)” value ([3]; 100 μg/kg body weight i.p. once a day, 7-Weeks) was 46.2 ± 0.4 degree and the “endurable-slant-slope-angle (degree)” value ([3]; 100 μg/kg body weight i.p. once a day, 8-Weeks) was 47.6 ± 0.4 degree. The “endurable-slant-slope-angle (degree)” value ([3]; 100 μg/kg body weight i.p. once a day, 9-Weeks) was 46.8 ± 0.3 degree, the “endurable-slant-slope-angle (degree)” value ([3]; 100 μg/kg body weight i.p. once a day, 10-Weeks) was 51.6 ± 0.6 degree and the “endurable-slant-slope-angle (degree)” value ([3]; 500 μg/kg body weight i.p. once a day, 4-Weeks) was 43.8 ± 0.4 degree. The “endurable-slant-slope-angle (degree)” value ([3]; 500 μg/kg body weight i.p. once a day, 5-Weeks) was 46.4 ± 0.2 degree, the “endurable-slant-slope-angle (degree)” value ([3]; 500 μg/kg body weight i.p. once a day, 6-Weeks) was 44.0 ± 0.6 degree and the “endurable-slant-slope-angle (degree)” value ([3]; 500 μg/kg body weight i.p. once a day, 7-Weeks) was 44.6 ± 0.5 degree. The “endurable-slant-slope-angle (degree)” value ([3]; 500 μg/kg body weight i.p. once a day, 8-Weeks) was 48.0 ± 0.5 degree, the “endurable-slant-slope-angle (degree)” value ([3]; 500 μg/kg body weight i.p. once a day, 9-Weeks) was 47.5 ± 0.4 degree and the “endurable-slant-slope-angle (degree)” value ([3]; 500 μg/kg body weight i.p. once a day, 10-Weeks) was 51.8 ± 0.4 degree. The “Endurable-slant-slope-angle (°)” value [3, 4] was 55.8 ± 2.5 °.
